Test results as given in ChEMBL document CHEMBL6109139, “Rational Design of the First Dual Agonist at Trace Amine-Associated Receptor 1 and 5-HT2C Receptors Based on Binding Pocket Similarity for the Treatment of Schizophrenia and Alzheimer's Disease-Related Psychosis” (J Med Chem, 2025).
Activity calls are given as the source filed them. The rule behind the calls is not given here.

How the values were obtained:
[1] = biological target: T1, Trace amine-associated receptor 1 (Homo sapiens, UniProt Q96RJ0); assay: Agonist activity at human TAAR1 extracted from CHO-K1 cell membrane coexpressing AGTRL1/Gi by cAMP assay; assay type: functional, cell membranes
T1 sequence (Q96RJ0 whole entry): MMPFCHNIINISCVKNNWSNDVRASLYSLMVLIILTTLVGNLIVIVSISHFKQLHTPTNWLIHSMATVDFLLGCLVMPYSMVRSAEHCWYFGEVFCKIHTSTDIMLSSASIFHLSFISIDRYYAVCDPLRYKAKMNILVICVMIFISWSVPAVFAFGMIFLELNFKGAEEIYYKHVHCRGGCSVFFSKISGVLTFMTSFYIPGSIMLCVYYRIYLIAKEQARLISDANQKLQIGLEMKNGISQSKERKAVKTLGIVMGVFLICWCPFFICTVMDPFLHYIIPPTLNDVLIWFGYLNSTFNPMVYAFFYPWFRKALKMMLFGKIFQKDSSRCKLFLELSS

[2] = biological target: T2, 5-hydroxytryptamine receptor 2C (Homo sapiens, UniProt P28335); assay: Agonist activity at recombinant human 5-HT2CR expressed in HEK293 cells incubated for 2 hrs by FLIPR calcium assay; assay type: functional, cell-based
T2 sequence (P28335 whole entry): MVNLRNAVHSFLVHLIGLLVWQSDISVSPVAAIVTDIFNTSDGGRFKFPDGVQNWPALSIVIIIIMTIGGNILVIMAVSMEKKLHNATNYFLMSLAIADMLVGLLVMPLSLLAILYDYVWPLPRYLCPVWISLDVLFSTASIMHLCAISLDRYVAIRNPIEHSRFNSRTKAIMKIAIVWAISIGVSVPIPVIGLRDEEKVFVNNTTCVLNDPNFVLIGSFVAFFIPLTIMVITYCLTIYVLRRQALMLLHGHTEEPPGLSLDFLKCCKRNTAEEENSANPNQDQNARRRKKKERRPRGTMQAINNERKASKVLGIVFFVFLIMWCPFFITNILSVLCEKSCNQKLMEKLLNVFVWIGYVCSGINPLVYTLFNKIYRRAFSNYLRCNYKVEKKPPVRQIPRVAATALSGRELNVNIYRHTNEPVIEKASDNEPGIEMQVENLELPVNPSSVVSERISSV

HEK293 = assay: Agonist activity at 5HT2CR […] mutant (unknown origin) expressed in HEK293 cells assessed as IP1 level by HTRF IP1 competitive binding assay; assay type: cell-based; conditions: Homo sapiens
[3] = Metabolic stability in mouse liver microsomes assessed as intrinsic clearance at 1 uM incubated for 60 mins by LC-MS/MS analysis; assay type: ADME, Microsome; conditions: read-out: CLH
[4] = Metabolic stability in human liver microsomes assessed as intrinsic clearance at 1 uM incubated for 60 mins by LC-MS/MS analysis; assay type: ADME, Microsome; conditions: read-out: CLH
[5] = Plasma protein binding in human assessed as unbound fraction by LC-MS/MS analysis; assay type: ADME, cell-free
Cytochrome P450 2C9 = Cytochrome P450 2C9 (Homo sapiens, UniProt P11712); assay: Inhibition of CYP2C9 in human liver microsomes in presence of NADPH by LC-MS/MS analysis; assay type: ADME, Microsome
Chain of Cytochrome P450 2C9 (P11712 whole entry): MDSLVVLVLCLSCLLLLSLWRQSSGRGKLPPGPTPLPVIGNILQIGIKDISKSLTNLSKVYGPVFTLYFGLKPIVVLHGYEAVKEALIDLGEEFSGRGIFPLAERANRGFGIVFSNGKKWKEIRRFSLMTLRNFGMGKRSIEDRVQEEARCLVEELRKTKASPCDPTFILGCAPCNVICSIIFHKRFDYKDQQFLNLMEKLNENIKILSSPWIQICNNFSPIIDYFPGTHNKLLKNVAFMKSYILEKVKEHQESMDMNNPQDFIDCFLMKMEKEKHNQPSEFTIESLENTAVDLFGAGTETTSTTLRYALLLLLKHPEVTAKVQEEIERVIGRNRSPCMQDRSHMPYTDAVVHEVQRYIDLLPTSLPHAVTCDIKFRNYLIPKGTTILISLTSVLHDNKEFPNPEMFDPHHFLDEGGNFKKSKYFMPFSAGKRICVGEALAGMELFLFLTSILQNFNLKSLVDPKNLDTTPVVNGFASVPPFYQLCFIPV

[6] = Inhibition of CYP2D6 in human liver microsomes in presence of NADPH by LC-MS/MS analysis; assay type: ADME, Microsome
Mus musculus [7] = assay: Antipsychotic activity against MK-801 induced hyperlocomotion in male C57BL/6J mouse model assessed as reduction in hyperlocomotive state at 5 mg/kg, IG pretreated with compound followed by MK-801 addition and measured after 30 mins by open field test; assay type: functional, organism-based
Mus musculus [8] = assay: Antipsychotic activity in amyloid beta(1 to 42) induced cognitive impairment in mouse model assessed as increase in discrimination ratio of novel objects at 1 mg/kg, IG measured after 24 hrs by novel object recognition test; assay type: functional, organism-based
Mus musculus [9] = species: Mus musculus; assay: Antipsychotic activity against MK-801 induced hyperlocomotion in male C57BL/6J mouse model assessed as effective dose; assay type: functional
[10] = biological target: Trace amine-associated receptor 1 (Rattus norvegicus, UniProt Q923Y9); assay: Agonist activity at rat TAAR1; assay type: functional
Chain of Trace amine-associated receptor 1 (Rattus norvegicus, UniProt Q923Y9) (Q923Y9 whole entry): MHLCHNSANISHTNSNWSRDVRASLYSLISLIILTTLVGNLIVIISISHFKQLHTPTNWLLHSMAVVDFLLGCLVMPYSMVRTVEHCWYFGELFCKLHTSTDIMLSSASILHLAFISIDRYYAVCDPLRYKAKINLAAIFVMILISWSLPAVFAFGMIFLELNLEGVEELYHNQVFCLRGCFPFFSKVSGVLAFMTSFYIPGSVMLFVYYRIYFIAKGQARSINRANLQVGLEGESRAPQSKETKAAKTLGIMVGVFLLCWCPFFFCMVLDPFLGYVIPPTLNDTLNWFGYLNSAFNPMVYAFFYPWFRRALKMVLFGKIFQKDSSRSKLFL

D(2) dopamine receptor = D(2) dopamine receptor (Homo sapiens, UniProt P14416); assay: Antagonist activity at human D2L receptor expressed in Flp-In-CHO cells; assay type: cell-based
Chain of D(2) dopamine receptor (P14416 whole entry): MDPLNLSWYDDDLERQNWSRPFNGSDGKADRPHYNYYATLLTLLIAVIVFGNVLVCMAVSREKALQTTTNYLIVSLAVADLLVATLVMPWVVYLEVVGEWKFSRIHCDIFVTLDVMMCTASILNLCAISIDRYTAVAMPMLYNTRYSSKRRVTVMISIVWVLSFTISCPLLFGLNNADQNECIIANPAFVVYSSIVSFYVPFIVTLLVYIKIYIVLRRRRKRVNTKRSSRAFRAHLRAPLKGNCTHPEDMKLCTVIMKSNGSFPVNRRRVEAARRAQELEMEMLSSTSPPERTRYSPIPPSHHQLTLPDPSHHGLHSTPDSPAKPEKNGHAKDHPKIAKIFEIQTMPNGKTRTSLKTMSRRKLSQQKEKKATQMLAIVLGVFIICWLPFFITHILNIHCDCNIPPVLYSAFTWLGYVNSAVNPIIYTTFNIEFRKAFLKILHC

[11] = biological target: 5-hydroxytryptamine receptor 3A (Homo sapiens) (UniProt P46098); assay: Binding affinity to 5-HT3 (unknown origin) at 10 uM by radioligand binding assay relative to control
Chain of 5-hydroxytryptamine receptor 3A (Homo sapiens) (P46098 whole entry): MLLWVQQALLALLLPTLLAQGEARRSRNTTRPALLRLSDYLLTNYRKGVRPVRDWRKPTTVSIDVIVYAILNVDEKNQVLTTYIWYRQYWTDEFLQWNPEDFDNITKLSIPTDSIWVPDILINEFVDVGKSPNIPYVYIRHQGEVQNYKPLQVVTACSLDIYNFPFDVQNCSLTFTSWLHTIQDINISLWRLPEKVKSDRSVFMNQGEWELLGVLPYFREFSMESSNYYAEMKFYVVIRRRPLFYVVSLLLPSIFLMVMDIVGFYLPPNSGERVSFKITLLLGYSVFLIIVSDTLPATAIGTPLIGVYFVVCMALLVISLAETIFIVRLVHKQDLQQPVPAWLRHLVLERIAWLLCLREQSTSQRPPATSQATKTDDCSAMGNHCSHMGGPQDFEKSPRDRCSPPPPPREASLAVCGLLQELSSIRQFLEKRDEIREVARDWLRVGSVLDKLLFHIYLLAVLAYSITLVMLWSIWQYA

[12] = biological target: Adenosine receptor A2a (Homo sapiens) (UniProt P29274); assay: Binding affinity to ADORA2A (unknown origin) at 10 uM by radioligand binding assay relative to control
Chain of Adenosine receptor A2a (Homo sapiens) (P29274 whole entry): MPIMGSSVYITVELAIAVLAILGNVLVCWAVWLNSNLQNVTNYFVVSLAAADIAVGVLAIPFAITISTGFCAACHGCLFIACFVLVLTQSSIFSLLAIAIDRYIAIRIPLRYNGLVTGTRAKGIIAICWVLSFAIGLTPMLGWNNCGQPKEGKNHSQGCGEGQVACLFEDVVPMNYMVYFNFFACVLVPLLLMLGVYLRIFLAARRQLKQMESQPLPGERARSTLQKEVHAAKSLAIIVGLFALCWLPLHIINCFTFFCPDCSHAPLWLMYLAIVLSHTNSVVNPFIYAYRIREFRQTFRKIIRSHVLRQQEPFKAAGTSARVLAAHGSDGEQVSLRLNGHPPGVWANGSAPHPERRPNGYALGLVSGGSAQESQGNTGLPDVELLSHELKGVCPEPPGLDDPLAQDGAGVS

[13] = biological target: Beta-1 adrenergic receptor (Homo sapiens) (UniProt P08588); assay: Binding affinity to beta 1 receptor (unknown origin) at 10 uM by radioligand binding assay relative to control
Chain of Beta-1 adrenergic receptor (Homo sapiens) (P08588 whole entry, looked up): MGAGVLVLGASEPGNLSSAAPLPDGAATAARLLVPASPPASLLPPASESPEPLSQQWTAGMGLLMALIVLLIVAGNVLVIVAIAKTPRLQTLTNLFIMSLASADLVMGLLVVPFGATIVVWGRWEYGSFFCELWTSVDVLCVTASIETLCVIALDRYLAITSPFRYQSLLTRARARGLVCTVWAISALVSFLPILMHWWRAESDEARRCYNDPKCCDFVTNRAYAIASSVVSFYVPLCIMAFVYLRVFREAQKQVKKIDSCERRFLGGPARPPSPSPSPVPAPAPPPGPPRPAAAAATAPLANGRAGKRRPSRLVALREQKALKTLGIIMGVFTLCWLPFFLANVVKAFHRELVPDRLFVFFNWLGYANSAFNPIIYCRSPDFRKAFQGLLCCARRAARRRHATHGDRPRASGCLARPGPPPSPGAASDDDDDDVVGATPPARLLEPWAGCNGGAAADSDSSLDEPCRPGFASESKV

[14] = biological target: Delta-type opioid receptor (Homo sapiens) (UniProt P41143); assay: Binding affinity to op-delta receptor (unknown origin) at 10 uM by radioligand binding assay relative to control
Chain of Delta-type opioid receptor (Homo sapiens) (P41143 whole entry): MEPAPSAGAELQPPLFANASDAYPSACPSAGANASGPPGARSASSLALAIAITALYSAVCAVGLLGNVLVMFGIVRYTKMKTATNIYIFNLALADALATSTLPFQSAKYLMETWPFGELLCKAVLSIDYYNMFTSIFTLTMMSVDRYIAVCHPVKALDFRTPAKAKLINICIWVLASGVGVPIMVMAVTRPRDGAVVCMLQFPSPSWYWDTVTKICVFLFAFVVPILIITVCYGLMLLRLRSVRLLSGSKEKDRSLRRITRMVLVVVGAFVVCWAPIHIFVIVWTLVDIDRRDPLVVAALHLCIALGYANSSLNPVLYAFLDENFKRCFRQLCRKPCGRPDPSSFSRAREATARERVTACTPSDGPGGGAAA

[15] = Toxicity in Sprague-Dawley rat assessed as catalepsy 2.5 to 7.5 mg/kg, po administered once daily for 4 weeks; assay type: organism-based; conditions: in vivo, 672 h, dose 2.5-7.5 mg/kg
[16] = Toxicity in female Sprague-Dawley rat assessed as suppression of food consumption at 7.5 mg/kg, po administered once daily for 4 weeks and measured weekly twice; assay type: organism-based; conditions: in vivo, 672 h
[17] = Toxicity in male Sprague-Dawley rat assessed as change in blood glucose level at 2.5 to 7.5 mg/kg, po administered once daily for 4 weeks and measured after 4 weeks; assay type: organism-based; conditions: in vivo, 1344 h, dose 2.5-7.5 mg/kg, time 8 weeks
[18] = Toxicity in male Sprague-Dawley rat assessed as irritability at 7.5 mg/kg, po administered once daily for 4 weeks; assay type: organism-based; conditions: in vivo, 672 h
[19] = Toxicity in male Sprague-Dawley rat assessed as piloerection at 7.5 mg/kg, po administered once daily for 4 weeks and measured after 4 weeks; assay type: organism-based; conditions: in vivo, 1344 h, time 8 weeks
[20] = Toxicity in male Sprague-Dawley rat assessed as irritability at 7.5 mg/kg, po administered once daily for 4 weeks and measured after 4 weeks; assay type: organism-based; conditions: in vivo, 1344 h, time 8 weeks
[21] = Toxicity in male Sprague-Dawley rat assessed as change in hematology at 2.5 to 7.5 mg/kg, po administered once daily for 4 weeks and measured after 4 weeks; assay type: organism-based; conditions: in vivo, 1344 h, dose 2.5-7.5 mg/kg, time 8 weeks
[22] = Toxicity in female Sprague-Dawley rat assessed as minimal corneal neovascularization at 2.5 to 7.5 mg/kg, po administered once daily for 4 weeks and measured after 4 weeks; assay type: organism-based; conditions: in vivo, 1344 h, dose 2.5-7.5 mg/kg, time 8 weeks
[23] = Toxicity in male Sprague-Dawley rat assessed as corneal epithelial degeneration at 2.5 to 7.5 mg/kg, po administered once daily for 4 weeks and measured after 4 weeks; assay type: organism-based; conditions: in vivo, 1344 h, dose 2.5-7.5 mg/kg, time 8 weeks
[24] = Toxicity in female Beagle dog assessed as change in body weight at 0.75 to 2.5 mg/kg, IG administered once daily for 4 weeks and measured after 4 weeks; assay type: organism-based, Canis lupus familiaris; conditions: in vivo, po, 1344 h, dose 0.75-2.5 mg/kg, time 8 weeks
[25] = Toxicity in female Beagle dog assessed as change in food consumption at 0.75 to 2.5 mg/kg, IG administered once daily for 4 weeks and measured after 4 weeks; assay type: organism-based, Canis lupus familiaris; conditions: in vivo, po, 1344 h, dose 0.75-2.5 mg/kg, time 8 weeks
[26] = Toxicity in female Beagle dog assessed as somnolence at 2.5 mg/kg, IG administered once daily for 4 weeks and measured after 4 weeks; assay type: organism-based, Canis lupus familiaris; conditions: in vivo, po, 1344 h, time 8 weeks

c1cc2c(s1)[C@@H]1CNCCN1CC2
EC50 [1]: 22 nM
EC50 [2]: 246 nM
Activity (HEK293): inactive
CLint scaled at 1 µM [3]: < 29.7 mL/min/kg
CLint scaled at 1 µM [4]: 6.8 mL/min/kg
fraction unbound [5]: 0.668
IC50 (Cytochrome P450 2C9): > 50000 nM
IC50 [6]: > 50000 nM
Activity (Mus musculus [7]): Active; More Effective Than Aripiprazole
Activity (Mus musculus [8]): Active
ED50 (Mus musculus [9]): 2.81 mg/kg
EC50 [10]: 682 nM
IC50 (D(2) dopamine receptor): > 100000 nM
Activity [11]: 13%
Activity [12]: -1.11%
Activity [13]: -0.11%
Activity [14]: 15.4%
Activity [15]: Non-toxic
Activity [16]: Toxic
Activity [17]: Non-toxic
Activity [18]: Toxic
Activity [19]: Non-toxic
Activity [20]: Non-toxic
Activity [21]: Non-toxic
Activity [22]: Non-toxic
Activity [23]: Non-toxic
Activity [24]: Non-toxic
Activity [25]: Non-toxic
Activity [26]: Non-toxic
